Where two headings read alike, the source gives them in different places.

Data set [1] has as its system SMN2 minigene (full length SMN2 minigene mRNA containing SMN2 exon 7). The experiment in a line: SMN2 minigene mRNA splicing RT-qPCR assay in cultured cells. The settings on record: Homo sapiens, HEK293-H, read-out: EC1.5x for production of full length SMN2 mRNA. The format is cell-based, human. The method, boiled down: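 Read-out: full-length (exon 7-included) SMN2 minigene mRNA by multiplex RT-qPCR with GAPDH, efficiency-corrected (1+E)^−Ct, GAPDH-normalized and divided by vehicle. Stably transfected HEK293H cells, 24 h compound exposure, duplicates per concentration. Value is EC1.5x, reported as star ranges.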

The next data set relates to Smn protein. The experiment in a line: Smn protein assay in cultured cells (SMN HTRF). Format: cell-based, human. Conditions: 48 hours; for maximum fold (Fold) increase of Smn protein: SMA patient fibroblast cells, 7-point concentration data, fold increase relative to vehicle control (SMN HTRF); for EC1.5x (concentration giving 1.5-fold Smn protein increase): SMA Type 1 patient fibroblast cells (GM03813), 7-point concentration curve, SMN HTRF, concentration producing 1.5 times Smn protein vs DMSO vehicle control, read-out: EC1.5x for Smn protein expression. In outline: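 Lysates in RIPA with protease inhibitors are incubated overnight at room temperature with HTRF anti-SMN antibodies. EC1.5x is derived from fold increase in ΔF over vehicle.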

Setting [2] is: HEK293H cells stably transfected with SMN2-A minigene, 24 hours, 7-point concentration curve, 1.5-fold relative to vehicle-treated cells.

As a reminder, the melting point is the temperature, or range, at which the solid turns liquid. Compound `O=c1oc2cc(N3CCCNCC3)ccc2cc1-c1cc2ccccn2n1` [Compound 192, 7-(1,4-diazepan-1-yl)-3-(pyrazolo[1,5-a]pyridin-2-yl)-2H-chromen-2-one] gave a melting point of 178 to 180 °C. Further, in data set [1] (setting [2]), the EC (1.5-fold) fell in the range of 0.3 to 1 µM. Moreover, the “maximum fold (Fold) increase of Smn protein” value (“maximum fold (Fold) increase” for short) in the data set on Smn protein is “** (fold increase between >1.2 and ≤1.35)”.

In turn, `CN(C)Cc1ccc2cc(-c3nc4ccccc4s3)c(=O)oc2c1` [Compound 13, 3-(1,3-benzothiazol-2-yl)-7-[(dimethylamino)methyl]-2H-chromen-2-one] gave a melting point of 171 to 176 °C. Also, in data set [1] (setting [2]), the EC (1.5-fold) fell in the range of 1 to 3 µM. For the same compound, in the data set with Smn protein, the “maximum fold (Fold) increase” value was “** (fold increase between >1.2 and ≤1.35)”.

On to `Cc1ccc2nc(-c3cc4ccc(N5CCN(C)CC5)cc4oc3=O)cn2c1` [Compound 81, 3-(6-methylimidazo[1,2-a]pyridin-2-yl)-7-(4-methylpiperazin-1-yl)-2H-chromen-2-one], for which the melting point is 267 °C (dec.). Moreover, in data set [1] (setting [2]), the EC (1.5-fold) was in the range of 0.3 to 1 µM. Further, in the data set with Smn protein, the EC1.5x (concentration giving 1.5-fold Smn protein increase) fell in the range of 3000 to 10000 nM; the “maximum fold (Fold) increase” value is “*** (fold increase between >1.35 and ≤1.5)”.

Turning to `C[C@@H]1CN(c2ccc3cc(-c4cn5cccc(F)c5n4)c(=O)oc3c2)CCN1` [Compound 530, 3-(8-fluoroimidazo[1,2-a]pyridin-2-yl)-7-[(3R)-3-methylpiperazin-1-yl]-2H-chromen-2-one], the melting point is 226 to 228 °C. For the same compound, in data set [1] (setting [2]), the EC (1.5-fold) lay within 0.3 to 1 µM. For the same compound, in the data set on Smn protein, the EC1.5x (concentration giving 1.5-fold Smn protein increase) was less than 300 nM; the “maximum fold (Fold) increase” value was “**** (fold increase between >1.5 and ≤1.65)”.

On to `O=c1oc2cc(N3CCNCC3)ccc2cc1-c1cc2ccccn2c1` [Cpd 529, 3-(indolizin-2-yl)-7-(piperazin-1-yl)-2H-chromen-2-one], for which the melting point was 186 to 188 °C. Besides, the EC (1.5-fold) in data set [1] (setting [2]) was in the range of 1 to 3 µM. In addition, in the data set with Smn protein, the “maximum fold (Fold) increase” value is “* (maximum fold increase of ≤1.2)”.

As to `CCc1cc(C)cn2cc(-c3cc4ccc(N5CCCN(C)CC5)cc4oc3=O)nc12` [Compound 332, 3-(8-ethyl-6-methylimidazo[1,2-a]pyridin-2-yl)-7-(4-methyl-1,4-diazepan-1-yl)-2H-chromen-2-one], the melting point was in the range of 172 to 176 °C. Moreover, in data set [1] (setting [2]), the EC (1.5-fold) was 0.3 to 1 µM. Further, the “maximum fold (Fold) increase” value in the data set with Smn protein is on record as “* (maximum fold increase of ≤1.2)”.

`Cc1cn2cc(-c3cc4ccc(N5CCC(NC(C)C)CC5)cc4oc3=O)nc2c(C)n1` [Compound 923, 3-(6,8-dimethylimidazo[1,2-a]pyrazin-2-yl)-7-[4-(propan-2-ylamino)piperidin-1-yl]-2H-chromen-2-one] showed a melting point of 216 to 218 °C. Further, the EC (1.5-fold) in data set [1] (setting [2]) is less than 0.1 µM. Also, in the data set on Smn protein, the EC1.5x (concentration giving 1.5-fold Smn protein increase) lay in the range of 300 to 1000 nM; the “maximum fold (Fold) increase” value is “*** (fold increase between >1.35 and ≤1.5)”.

Regarding `Cc1cn2cc(-c3cc4ccc(C5CCN(CC(C)C)CC5)cc4oc3=O)nc2c(C)n1` [Compound 914, 3-(6,8-dimethylimidazo[1,2-a]pyrazin-2-yl)-7-[1-(2-methylpropyl)piperidin-4-yl]-2H-chromen-2-one], the melting point fell in the range of 191 to 198 °C. In data set [1] (setting [2]), the EC (1.5-fold) was less than 0.1 µM. In the data set with Smn protein, the EC1.5x (concentration giving 1.5-fold Smn protein increase) is less than 300 nM; the “maximum fold (Fold) increase” value was “**** (fold increase between >1.5 and ≤1.65)”.

Compound `Cc1cccn2cc(-c3cc4ccc(N5CCCN(C)CC5)cc4oc3=O)nc12` [Compound 246, 7-(4-methyl-1,4-diazepan-1-yl)-3-(8-methylimidazo[1,2-a]pyridin-2-yl)-2H-chromen-2-one] had a melting point of 138 to 140 °C. Besides, the EC (1.5-fold) in data set [1] (setting [2]) was in the range of 0.1 to 0.3 µM. Moreover, in the data set on Smn protein, the EC1.5x (concentration giving 1.5-fold Smn protein increase) fell in the range of 1000 to 3000 nM; the “maximum fold (Fold) increase” value was “*** (fold increase between >1.35 and ≤1.5)”.

As to `C[C@@H]1CN(c2ccc3cc(-c4cn5cccc(Cl)c5n4)c(=O)oc3c2)CCN1` [Compound 183, 3-(8-chloroimidazo[1,2-a]pyridin-2-yl)-7-[(3R)-3-methylpiperazin-1-yl]-2H-chromen-2-one], the melting point was in the range of 215 to 218 °C. Also, in data set [1] (setting [2]), the EC (1.5-fold) was 0.3 to 1 µM. In addition, in the data set on Smn protein, the “maximum fold (Fold) increase” value is “** (fold increase between >1.2 and ≤1.35)”.

In turn, `C[C@H]1CN(c2ccc3cc(-c4cn5cc(C6CC6)cc(F)c5n4)c(=O)oc3c2)CCN1` [Compound 498, 3-(6-cyclopropyl-8-fluoroimidazo[1,2-a]pyridin-2-yl)-7-[(3S)-3-methylpiperazin-1-yl]-2H-chromen-2-one] registered a melting point of 254 to 263 °C. Besides, the EC (1.5-fold) in data set [1] (setting [2]) lay in the range of 0.3 to 1 µM. Further, the “maximum fold (Fold) increase” value in the data set with Smn protein is reported as “* (maximum fold increase of ≤1.2)”.

In turn, `O=c1oc2cc(N3CCNCC3)ccc2cc1-c1cn2cc(Cl)sc2n1` [Compound 494, 3-(2-chloroimidazo[2,1-b][1,3]thiazol-6-yl)-7-(piperazin-1-yl)-2H-chromen-2-one] had a melting point of 240 to 242 °C. Further, in data set [1] (setting [2]), the EC (1.5-fold) lay within 0.1 to 0.3 µM. Besides, the “maximum fold (Fold) increase” value with Smn protein was “* (maximum fold increase of ≤1.2)”.

Regarding `Cc1cn2cc(-c3cc4ccc(N5CCCN(C)CC5)cc4oc3=O)cnc2n1` [Compound 662, 7-(4-methyl-1,4-diazepan-1-yl)-3-(2-methylimidazo[1,2-a]pyrimidin-6-yl)-2H-chromen-2-one], the melting point lay within 286 to 289 °C. In addition, the EC (1.5-fold) in data set [1] (setting [2]) is less than 0.1 µM. For the same compound, in the data set with Smn protein, the EC1.5x (concentration giving 1.5-fold Smn protein increase) was 1000 to 3000 nM; the “maximum fold (Fold) increase” value was “*** (fold increase between >1.35 and ≤1.5)”.

Regarding `COc1ccc(-c2cc3c(F)cc(N4CCNCC4)cc3oc2=O)cc1OC` [Compound 404, 3-(3,4-dimethoxyphenyl)-5-fluoro-7-(piperazin-1-yl)-2H-chromen-2-one], the melting point was 240 °C (dec.). The EC (1.5-fold) in data set [1] (setting [2]) lay within 0.3 to 1 µM. In the data set on Smn protein, the EC1.5x (concentration giving 1.5-fold Smn protein increase) was 1000 to 3000 nM; the “maximum fold (Fold) increase” value is “**** (fold increase between >1.5 and ≤1.65)”.

In the case of `Cc1cn2cc(-c3cc4ccc(N5CCN(C6CCC6)CC5)cc4oc3=O)nc2c(C)n1` [Compound 822, 7-(4-cyclobutylpiperazin-1-yl)-3-(6,8-dimethylimidazo[1,2-a]pyrazin-2-yl)-2H-chromen-2-one], the melting point was 260 to 262 °C. The EC (1.5-fold) in data set [1] (setting [2]) is less than 0.1 µM. Moreover, in the data set with Smn protein, the EC1.5x (concentration giving 1.5-fold Smn protein increase) was less than 300 nM; the “maximum fold (Fold) increase” value was “**** (fold increase between >1.5 and ≤1.65)”.

For the compound `Cc1cn2cc(-c3cc4ccc(N5CCN6CCC[C@@H]6C5)cc4oc3=O)nc2c(C)n1` [Compound 632, 3-(6,8-dimethylimidazo[1,2-a]pyrazin-2-yl)-7-[(8aR)-hexahydropyrrolo[1,2-a]pyrazin-2(1H)-yl]-2H-chromen-2-one], the melting point fell in the range of 255 to 258 °C. For the same compound, the EC (1.5-fold) in data set [1] (setting [2]) was less than 0.1 µM. In addition, in the data set with Smn protein, the EC1.5x (concentration giving 1.5-fold Smn protein increase) is less than 300 nM and the “maximum fold (Fold) increase” value is recorded as “***** (fold increase >1.65)”.

With `Cc1nccn2cc(-c3cc4ccc(N5CCN6CCC[C@H]6C5)cc4oc3=O)cc12` [Compound 642, 7-[(8aS)-hexahydropyrrolo[1,2-a]pyrazin-2(1H)-yl]-3-(1-methylpyrrolo[1,2-a]pyrazin-7-yl)-2H-chromen-2-one], the melting point fell in the range of 175 to 178 °C. Further, the EC (1.5-fold) in data set [1] (setting [2]) is less than 0.1 µM. In addition, the “maximum fold (Fold) increase” value in the data set with Smn protein was “** (fold increase between >1.2 and ≤1.35)”.

Compound `CCN1CCN(c2cc(F)c3cc(-c4cn5cc(C)nc(C)c5n4)c(=O)oc3c2)CC1` [Compound 746, 3-(6,8-dimethylimidazo[1,2-a]pyrazin-2-yl)-7-(4-ethylpiperazin-1-yl)-5-fluoro-2H-chromen-2-one] gave a melting point of 232 to 234 °C. The EC (1.5-fold) in data set [1] (setting [2]) is less than 0.1 µM. Further, in the data set on Smn protein, the EC1.5x (concentration giving 1.5-fold Smn protein increase) was less than 300 nM and the “maximum fold (Fold) increase” value is listed as “***** (fold increase >1.65)”.

`CN1CCN(c2ccc3cc(-c4ccsc4)c(=O)oc3c2)CC1` [Compound 320, 7-(4-methylpiperazin-1-yl)-3-(thiophen-3-yl)-2H-chromen-2-one]: the melting point lay in the range of 151 to 153 °C. Moreover, the EC (1.5-fold) in data set [1] (24 h) was 1 to 3 µM. Moreover, the “maximum fold (Fold) increase” value in the data set with Smn protein is “* (maximum fold increase of ≤1.2)”.

Consider `Cc1ccn2cc(-c3cc4ccc(N5CCNC6(CCCC6)C5)cc4oc3=O)nc2c1` [Compound 596, 7-(6,9-diazaspiro[4.5]dec-9-yl)-3-(7-methylimidazo[1,2-a]pyridin-2-yl)-2H-chromen-2-one], for which the melting point worked out at 180 °C. In addition, the EC (1.5-fold) in data set [1] (setting [2]) fell in the range of 0.3 to 1 µM. For the same compound, in the data set with Smn protein, the “maximum fold (Fold) increase” value is “** (fold increase between >1.2 and ≤1.35)”.

The compound `O=c1oc2cc(N3CCNCC3)ccc2cc1-c1ccncc1` [Compound 27, 7-(piperazin-1-yl)-3-(pyridin-4-yl)-2H-chromen-2-one] displayed a melting point of 212 to 214 °C. For the same compound, the EC (1.5-fold) in data set [1] (24 h) was 1 to 3 µM. Moreover, the “maximum fold (Fold) increase” value in the data set with Smn protein is given as “* (maximum fold increase of ≤1.2)”.

(Values after USRE47689E1, “Compounds for treating spinal muscular atrophy” (PTC Therapeutics, Inc., priority 2011, dated 2019).)
